Experimental data reported in publication PMC5214534, “Disaggregation of Amylin Aggregate by Novel Conformationally Restricted Aminobenzoic Acid containing α/β and α/γ Hybrid Peptidomimetics” (Scientific Reports, 2017).
Where a SMILES comes first, the peptide text is derived from it. Where no end group is shown, it is not given here. [ ]: non-standard residue; d: D form. 3Abz = Nc1cccc(C(=O)O)c1; 4Abz = Nc1ccc(C(=O)O)cc1; 2Abz = Nc1ccccc1C(=O)O; Aib = CC(C)(N)C(=O)O

Tests used:
[1] = target: T1, preformed fibrils of hIAPP (Homo sapiens, UniProt P10997); test: Time dependent Thioflavin T assay, disruption of preformed fibrils of hIAPP; format: biochemical; details: 10-fold molar excess added at 48 h to hIAPP 40 μM preincubated in PBS pH 7.4, 37 °C; total 7 (2 + 5) days; average of 3 replica
T1 construct: 3.1 mg of hIAPP(1-37) was dissolved in 50 μL of HFIP
T1 sequence (P10997 34-70): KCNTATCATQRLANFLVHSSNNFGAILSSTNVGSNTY
Description: We already observed that the BSBHps (3, 4, 7, and 8) were efficient inhibitors. Further, we investigated the ability of those molecules to disrupt preformed fibrils of hIAPP in vitro. From the ThT assay (black, Fig. 2a), we observed that hIAPP fibrillzation was maximum at ~45–50 h. Therefore, we designed an experiment where the BSBHps were added into the preformed fibrillar assembly at 48 h (2 days). The hIAPP was incubated alone in PBS pH 7.4 at 37 °C for 48 h (2 days) and then varied molar excess (2-, 5-, and 10-fold) of designed peptidomimetics were added to it and fibril disruption was monitored by various biophysical tools.
(§1) 3.1 mg of hIAPP(1-37) was dissolved in 50 μL of HFIP to obtain disaggregated hIAPP and HFIP was evaporated using nitrogen gas[43]. This process was repeated twice. Then, 5 mL of Milli Q water was added to the disaggregated material and divided the whole solution into 25 equal portions with 200 μL each. All 25 portions are lyophilized followed by addition of 800 μL of PBS (50 mM, pH 7.4) to each portion to obtain a final hIAPP concentration of 40 μM.
(§2) 50 μM Thioflavin T (ThT) in PBS (50 mM, pH 7.4) was prepared. All the synthesized peptides and hIAPP (alone and in some cases mixed with breaker peptides) were dissolved in PBS (50 mM, pH 7.4) to obtain a desired stock solution (40 μM in the case of hIAPP) and incubated at 37 °C over a water bath. To perform the fluorescence study, 40 μL of sample was taken out from the stock solution and was mixed with 200 μL of ThT solution (50 μM); final volume was made up to 400 μL with PBS. For ThT fluorescence assay, emission was measured at 490 nm and excitation at 435 nm, using a slit of 3 nm on a Fluoromax-4, Horiba instrument. The text files were taken from the instrument and graphs were plotted using OriginPro 8 software. For each data point 3 different sets of replica were scanned separately and average was taken with observed standard deviation.

hIAPP1-37 = target: T2, hIAPP1-37 (Homo sapiens, UniProt P10997); test: Time dependent Thioflavin T assay, inhibition of amyloid formation of hIAPP; format: biochemical; details: 10-fold molar excess of peptidomimetic co-incubated with hIAPP 40 μM, PBS pH 7.4, 37 °C, up to 7 days; average of 3 replica
T2 construct: 3.1 mg of hIAPP(1-37) was dissolved in 50 μL of HFIP
T2 sequence (P10997 34-70): T1 sequence (P10997 34-70)
Description: To examine the inhibitory efficacy of the single breaker element (I26X) containing BSBHps (3, 4 and 5), we performed various biophysical studies in absence and presence of BSBHps and compared the effect with that of the control 2. The BSBHps and the control were co-incubated with hIAPP in PBS pH 7.4 at 37 °C up to 7 days and the kinetics of the amyloid formation was monitored using various biophysical tools. To investigate dose dependence, 2-, 5- and 10-fold molar excess of peptidomimetics were incubated with hIAPP.
as §1, §2

[2] = Stability in presence of human serum (proteolytic enzymes); format: in vitro ADME; details: RPMI 1640 with 10% human serum (v/v), 37 °C, 15 min pre-incubation, 10 μL of 5 mg/mL DMSO stock in 1 mL, RP-HPLC and mass spectrometry
Text: Further, to test the stability of these peptidommetics in biological system we performed in vitro stability study in presence of human serum[37][38] which contained sufficient concentration of proteolytic enzymes. We selected BSBHPs 3 and 7, as from the results of all the experiments described above it was clear that BSBHps 3 (one breaker element containing) and 7 (two breaker elements containing) were the best among all the synthesized peptidomimetics. We compared the stability of 3 and 7 with their native peptide analogue (1) using time dependent HPLC & Mass spectrometry studies.
1 mL of the RPMI (Roswell Park Memorial Institute) 1640 media supplemented with 10% human serum (v/v) obtained from Thermo Fisher Scientific was taken in three different 2 mL eppendorf tube and incubated them at 37 °C for 15 min[38]. Then, 10 μL of the peptidomimetics (1, 3 & 7) in DMSO (5 mg/mL) were separately added to the RPMI media and incubated them at 37 °C. At different time interval 100 μL of the aliquot was taken out from the three different eppendorf tubes and added to 200 μL ethanol solution (96% aqueous ethanol) for precipitation of the serum protein. The precipitate was cooled (4 °C) for 10 min and then centrifuged at 18,000 rpm for 2 min and the pellet was discarded. The supernatant was collected and analyzed by RP-HPLC & Mass spectrometry. A linear gradient was used in the HPLC, from 5–100% CH3CN for 18 min followed by 100% CH3CN till 20 min with a flow rate of 4 mL/min using a semi-preparative C18-μ Bondapak column. Binary solvent system were used, solvent A (0.1% TFA in H2O) and solvent B (0.1% TFA in CH3CN).

[3] = Carboxyfluorescein dye leakage assay; details: sample 2: hIAPP incubated for 12 h; LUVs DPPC:cholesterol:GM1 68:30:2, 50 mM HEPES pH 7.4; peptide:lipid 1:20; 0 to 100 min
Description: The hIAPP soluble oligomers are known as more toxic than the matured amyloid, since they can damage the cell by forming pores on the cell membrane. […] To perform the vesicle leakage study, we have prepared 9 sets of different samples including untreated LUVs (without any peptide) as control for the experiment. All the peptidomimetics were added to hIAPP solution after 48 h of incubation and kept for total of 7 days (168 h = 48 h + 120 h) of incubation. After that different peptide solutions were added separately to the LUVs and leakage studies were performed. The different type of samples that were prepared is described below;
The peptide and the lipid were present in 1:20 molar ratios during leakage analysis. At the end of the experiment 10 μL of Triton X-100 was added to obtain complete dye release from the vesicle and the final fluorescence was measured. In addition to those, untreated LUVs (natural dye leakage) were studied and used as control. % dye leakage was calculated as[35],
The LUVs were prepared using three different lipids, DPPC, Cholesterol and GM1 with 68:30:2 molar ratios in 50 mM HEPES buffer of pH 7.4. Prior to the LUVs preparation, all the lipids were taken in clean glass vessel and solubilize to make 2 mM stock solution in chloroform and methanol (2:1) and the solvents were evaporated under vacuum. […]

In the case of `CC(C)C[C@H](NC(=O)C(C)(C)NC(=O)[C@H](C)NC(=O)CNC(=O)[C@H](Cc1ccccc1)NC(=O)[C@@H](N)CC(N)=O)C(N)=O` [Peptide 2] (H-NFGA[Aib]L-NH2), the “Disruption of preformed hIAPP amyloid (ThT assay)” value (“Disruption” for short) [1] is reported as ~ 23% and the “Inhibition of hIAPP amyloid formation (suppression of ThT fluorescence intensity)” value (“Inhibition of hIAPP amyloid formation” for short) (hIAPP1-37) is reported as ~ 40%.
For `CC(C)C[C@H](NC(=O)c1ccccc1NC(=O)[C@H](C)NC(=O)CNC(=O)[C@H](Cc1ccccc1)NC(=O)[C@@H](N)CC(N)=O)C(N)=O` [Peptide 3] (H-NFGA[2Abz]L-NH2), the “Disruption” value [1] was ~ 40%, the “Degradation in presence of human serum at 25 h” value [2] was “some degradation” and the “Inhibition of hIAPP amyloid formation” value (hIAPP1-37) was ~ 55%.
With `CC(C)C[C@H](NC(=O)c1cccc(NC(=O)[C@H](C)NC(=O)CNC(=O)[C@H](Cc2ccccc2)NC(=O)[C@@H](N)CC(N)=O)c1)C(N)=O` [Peptide 4] (H-NFGA[3Abz]L-NH2) the “Disruption” value [1] was ~ 33% and the “Inhibition of hIAPP amyloid formation” value (hIAPP1-37) was ~ 50%.
For `CC(C)C[C@H](NC(=O)c1ccc(NC(=O)[C@H](C)NC(=O)CNC(=O)[C@H](Cc2ccccc2)NC(=O)[C@@H](N)CC(N)=O)cc1)C(N)=O` [Peptide 5] (H-NFGA[4Abz]L-NH2), the “Enhancement of ThT fluorescence intensity of hIAPP” value (hIAPP1-37) was ~ 5%.
In the case of `CC(C)C[C@H](NC(=O)C(C)(C)NC(=O)[C@H](C)NC(=O)C(C)(C)NC(=O)[C@H](Cc1ccccc1)NC(=O)[C@@H](N)CC(N)=O)C(N)=O` [Peptide 6] (H-NF[Aib]A[Aib]L-NH2), the “Disruption” value [1] is reported as ~ 40% and the “Inhibition of hIAPP amyloid formation” value (hIAPP1-37) is reported as ~ 52%.
With `CC(C)C[C@H](NC(=O)c1ccccc1NC(=O)[C@H](C)NC(=O)c1ccccc1NC(=O)[C@H](Cc1ccccc1)NC(=O)[C@@H](N)CC(N)=O)C(N)=O` [Peptide 7] (H-NF[2Abz]A[2Abz]L-NH2) the “Disruption” value [1] was ~ 57%, the “Degradation in presence of human serum at 25 h” value [2] was “complete retention of the peak” and the “Inhibition of hIAPP amyloid formation” value (hIAPP1-37) was ~ 70%.
For `CC(C)C[C@H](NC(=O)c1cccc(NC(=O)[C@H](C)NC(=O)c2cccc(NC(=O)[C@H](Cc3ccccc3)NC(=O)[C@@H](N)CC(N)=O)c2)c1)C(N)=O` [Peptide 8] (H-NF[3Abz]A[3Abz]L-NH2), the “Disruption” value [1] was ~ 44% and the “Inhibition of hIAPP amyloid formation” value (hIAPP1-37) was ~ 65%.
With `CC(C)C[C@H](NC(=O)c1ccc(NC(=O)[C@H](C)NC(=O)c2ccc(NC(=O)[C@H](Cc3ccccc3)NC(=O)[C@@H](N)CC(N)=O)cc2)cc1)C(N)=O` [Peptide 9] (H-NF[4Abz]A[4Abz]L-NH2) the “Enhancement of ThT fluorescence intensity of hIAPP” value (hIAPP1-37) was ~ 12%.
For `CC[C@H](C)[C@H](NC(=O)[C@H](C)NC(=O)CNC(=O)[C@H](Cc1ccccc1)NC(=O)[C@H](CC(N)=O)NC(=O)[C@H](CC(N)=O)NC(=O)[C@H](CO)NC(=O)[C@H](CO)NC(=O)[C@H](Cc1c[nH]cn1)NC(=O)[C@@H](NC(=O)[C@H](CC(C)C)NC(=O)[C@H](Cc1ccccc1)NC(=O)[C@H](CC(N)=O)NC(=O)[C@H](C)NC(=O)[C@H](CC(C)C)NC(=O)[C@H](CCCNC(=N)N)NC(=O)[C@H](CCC(N)=O)NC(=O)[C@@H](NC(=O)[C@H](C)NC(=O)[C@@H]1CSSC[C@H](NC(=O)[C@@H](N)CCCCN)C(=O)N[C@@H](CC(N)=O)C(=O)N[C@@H]([C@@H](C)O)C(=O)N[C@@H](C)C(=O)N[C@@H]([C@@H](C)O)C(=O)N1)[C@@H](C)O)C(C)C)C(=O)N[C@@H](CC(C)C)C(=O)N[C@@H](CO)C(=O)N[C@@H](CO)C(=O)N[C@H](C(=O)N[C@@H](CC(N)=O)C(=O)N[C@H](C(=O)NCC(=O)N[C@@H](CO)C(=O)N[C@@H](CC(N)=O)C(=O)N[C@H](C(=O)N[C@@H](Cc1ccc(O)cc1)C(N)=O)[C@@H](C)O)C(C)C)[C@@H](C)O` [hIAPP], the “Dye leakage of LUVs treated with hIAPP” value [3] was “rapid increment of dye leakage”.
With “NFGAIL-NH2 [Peptide 1, reference compound]” the “Degradation in presence of human serum after 1 h” value ([2]; after 1 h) was “complete degradation”.
